Laboratory results published in ChEMBL document CHEMBL1275421, “Reduced Candida glabrata susceptibility secondary to an FKS1 mutation developed during candidemia treatment” (2008).
In brackets after ≈: the same amount, converted by molar mass. *1 amine or outer side, *2 acyl side, *3 side chain or, on linkers, in order; H or OH if unused. Where a SMILES comes first, the peptide text is derived from it. Bridges are numbered along the chain shown (N, C = ends). [ ]: non-standard residue; d: D form. The star is where a group is joined. hTyr(3S-OH,4S-OH,3'-OSO3H) = N[C@H](C(=O)O)[C@H](O)[C@@H](O)c1ccc(O)c(OS(=O)(=O)O)c1; pTerphenylCO(4''-OnC5H11) = CCCCCOc1ccc(-c2ccc(-c3ccc(C(=O)*)cc3)cc2)cc1; Orn(4R-OH,5R-OH) = O=C([C@H](C[C@@H](O)[C@@H](O)N[*:3])N[*:1])[*:2]; hTyr(3S-OH,4S-OH) = N[C@H](C(=O)O)[C@H](O)[C@@H](O)c1ccc(O)cc1; Pro(3S-OH,4S-Me) = C[C@H]1CN[C@H](C(=O)O)[C@H]1O; X1 = CCCCCOc1ccc(-c2cc(-c3ccc(C(=O)*)cc3)no2)cc1; Gln(3R-OH) = NC(=O)C[C@@H](O)[C@H](N)C(=O)O; Hyp = O=C(O)[C@@H]1C[C@@H](O)CN1

Key:
Assay type in all cases: functional
Nakaseomyces glabratus [1] = test: Antifungal activity against Candida glabrata 06-3168 obtained from patient on compound therapy by M27-A2 method
Nakaseomyces glabratus [2] = test: Antifungal activity against Candida glabrata 06-3170 harboring […] T1896G and D632E mutant obtained from patient on compound therapy by M27-A2 method
Nakaseomyces glabratus [3] = test: Antifungal activity against Candida glabrata 06-3169 harboring […] T1896G and D632E mutant obtained from patient on compound therapy by M27-A2 method
Pichia kudriavzevii = test: Antifungal activity against Candida krusei obtained from patient with acute myeloid leukemia

## C[C@@H]1[C@H](O)[C@@H](C)/C=C/C=C/C=C/C=C/C=C/C=C/C=C/[C@H](O[C@@H]2O[C@H](C)[C@@H](O)[C@H](N)[C@@H]2O)C[C@@H]2O[C@](O)(C[C@@H](O)C[C@@H](O)[C@H](O)CC[C@@H](O)C[C@@H](O)CC(=O)O[C@H]1C)C[C@H](O)[C@H]2C(=O)O [AMPHOTERICIN B]
Nakaseomyces glabratus [1]
  MIC: 0.125 µg/mL (≈ 0.135 µM)
Nakaseomyces glabratus [2]
  MIC: 0.125 µg/mL (≈ 0.135 µM)
Nakaseomyces glabratus [3]
  MIC: 0.125 µg/mL (≈ 0.135 µM)

## CCCCCOc1ccc(-c2ccc(-c3ccc(C(=O)N[C@H]4C[C@@H](O)[C@@H](O)NC(=O)[C@@H]5[C@@H](O)[C@@H](C)CN5C(=O)[C@H]([C@@H](C)O)NC(=O)[C@H]([C@H](O)[C@@H](O)c5ccc(O)cc5)NC(=O)[C@@H]5C[C@@H](O)CN5C(=O)[C@H]([C@@H](C)O)NC4=O)cc3)cc2)cc1 [ANIDULAFUNGIN] ({pTerphenylCO(4''-OnC5H11)}-[Orn(4R-OH,5R-OH)]T[Hyp][hTyr(3S-OH,4S-OH)]T[Pro(3S-OH,4S-Me)]; lactam 1-C)
Nakaseomyces glabratus [1]
  MIC: 0.03 µg/mL (≈ 0.0263 µM)
Nakaseomyces glabratus [2]
  MIC: > 2 µg/mL
Nakaseomyces glabratus [3]
  MIC: > 2 µg/mL

## CC[C@H](C)C[C@H](C)CCCCCCCCC(=O)N[C@H]1C[C@@H](O)[C@@H](NCCN)NC(=O)[C@@H]2[C@@H](O)CCN2C(=O)[C@H]([C@H](O)CCN)NC(=O)[C@H]([C@H](O)[C@@H](O)c2ccc(O)cc2)NC(=O)[C@@H]2C[C@@H](O)CN2C(=O)[C@H]([C@@H](C)O)NC1=O [CASPOFUNGIN]
Nakaseomyces glabratus [1]
  MIC: 0.06 µg/mL (≈ 0.0549 µM)
Pichia kudriavzevii
  MIC: 2 µg/mL (≈ 1.83 µM)
Nakaseomyces glabratus [2]
  MIC: > 2 µg/mL
Nakaseomyces glabratus [3]
  MIC: > 2 µg/mL

## OC(Cn1cncn1)(Cn1cncn1)c1ccc(F)cc1F [FLUCONAZOLE]
Nakaseomyces glabratus [1]
  MIC: 1 µg/mL (≈ 3.27 µM)
Nakaseomyces glabratus [2]
  MIC: 1 µg/mL (≈ 3.27 µM)
Nakaseomyces glabratus [3]
  MIC: 1 µg/mL (≈ 3.27 µM)

## CCCCCOc1ccc(-c2cc(-c3ccc(C(=O)N[C@H]4C[C@@H](O)[C@@H](O)NC(=O)[C@@H]5[C@@H](O)[C@@H](C)CN5C(=O)[C@H]([C@H](O)CC(N)=O)NC(=O)[C@H]([C@H](O)[C@@H](O)c5ccc(O)c(OS(=O)(=O)O)c5)NC(=O)[C@@H]5C[C@@H](O)CN5C(=O)[C@H]([C@@H](C)O)NC4=O)cc3)no2)cc1 [MICAFUNGIN] (X1-[Orn(4R-OH,5R-OH)]T[Hyp][hTyr(3S-OH,4S-OH,3'-OSO3H)][Gln(3R-OH)][Pro(3S-OH,4S-Me)]; lactam 1-C)
Nakaseomyces glabratus [1]
  MIC: 0.06 µg/mL (≈ 0.0472 µM)
Nakaseomyces glabratus [2]
  MIC: > 2 µg/mL
Nakaseomyces glabratus [3]
  MIC: > 2 µg/mL

## C[C@@H](c1ncncc1F)[C@](O)(Cn1cncn1)c1ccc(F)cc1F [VORICONAZOLE]
Nakaseomyces glabratus [1]
  MIC: 0.03 µg/mL (≈ 0.0859 µM)
Nakaseomyces glabratus [2]
  MIC: 0.03 µg/mL (≈ 0.0859 µM)
Nakaseomyces glabratus [3]
  MIC: 0.03 µg/mL (≈ 0.0859 µM)
